# Patent publication US12617757B2, “Compounds and modules for inhibition of pre-miR-21 and their use in treatment of certain cancers” (University of Florida Research Foundation, Incorporated, priority 2019, dated 2026)
# Test system: pre-miR-21
# Experiment: Cellular Chem-CLIP / C-Chem-CLIP in MDA-MB-231 cells
# Assay type: cell-based, human
# Procedure: Cellular Chem-CLIP/C-Chem-CLIP. The MDA-MB-231 cells were grown to ˜70% confluency as monolayers in 60 mm dishes. The cells were treated with Chem-CLIP compounds (8 or 9) and/or non-cross-linking competitors (1 or 2) for 48 h. Total RNA was extracted using a Quick-RNA MiniPrep Kit (Zymo Research) per the manufacturer's protocol. Approximately 20-30 μg of total RNA was then incubated with 100 μL of streptavidin-agarose beads (Sigma-Aldrich) and shaken for 1 h at room temperature. The solution was removed beads washed six times with 1×PBS. The RNA bound to beads was released, purified, and used for RT-qPCR as previously described^23. Relative fold enrichment of the measured RNA before and after pulldown was measured using equation 3 (Eq. 3): Relative Fold Enrichment=2^−(ΔC^t^before pulldown−ΔC^t^after pulldown) (Eq. 3)
# where “ΔCt before pulldown” is the difference between the Ct values for the RNA of interest and a housekeeping gene in total RNA from cells and “ΔCt after pulldown” is the difference between the Ct values for the RNA of interest and the same housekeeping gene in RNA after pulldown.
smiles,measurement,setting,value
CCCN(CC(=O)N(CCC)CC(=O)N(CCC)CC(=O)N(CC(N)=O)Cc1cn(CCCNC(=O)CCCOc2ccc(-c3nc4cc(-c5ccc(N6CCN(C)CC6)cc5)ccc4[nH]3)cc2)nn1)C(=O)CNCc1cn(CCCNC(=O)CCCOc2ccc(-c3nc4cc(-c5ccc(N6CCN(C)CC6)cc5)ccc4[nH]3)cc2)nn1 [Compound 2],potency in occupying pre-miR-21 in cells versus Formula 1 (C-Chem-CLIP),MDA-MB-231,20 fold
same,competition of Chem-CLIP enrichment (C-Chem-CLIP),"MDA-MB-231, versus probe 8",enrichment is depleted
